Experimental data from patent publication EP4613273A1, “TREATMENT OF BONE LOSS” (priority 2024, dated 2025).
Where a name gives a salt, the structure may show the parent alone. Read-outs that look alike come from different tables or passages of the source.

Legend:
[1] = system: dogs with alveolar bone loss induced by spontaneously developed periodontal disease; test: Periodontal parameter assessment (CAL, PPD, bleeding) in dogs with periodontal disease; type: in vivo; conditions: CTX-1 responders; Day-90 vs Day-0
Protocol: (§1) The present study was performed on 10 Beagle dogs suffering from alveolar bone loss induced by spontaneously developed periodontal disease. All dogs were treated with MIV-701 besylate salt for minimum 30 day and maximum 90 days, depending on the tolerance at intermediate visits. The product is administrated to the dog by its owner at home, once a day with a meal.
(§2) There were two treatment groups: • Group A (5 dogs) with a dose of 25 mg/kg. • Group B (5 dogs) with a dose of 50 mg/kg.
The examination was performed at visit V2 (Day 0) and visit V5 (90t 3 days).
At visit V2 (Day 0) and V5 (90 ± 3 days). the Investigator evaluated the following parameters for each tooth: • Periodontal probing depth (PPD) - measured as the distance from the gingival margin to the bottom of the pocket using a graduated periodontal probe of Investigator's choice. The sulcus/pocket was measured circumferentially around the whole tooth and valued of 3 to 6 places, depending on the tooth localization (Figure 11). Measurements was done in millimeters (mm) and rounded to the nearest lower value. The mean PPD value of these measurements per tooth was calculated. • Clinical attachment loss (CAL) - measured as the distance from the cemento-enamel-junction to the bottom of the pocket using a periodontal probe of the Investigator choice. CAL was measured in 3 to 6 sites per tooth depending on the tooth localization (Figure 11). Measurements was done in millimeters (mm) and rounded to the nearest lower value (Kortegaard et al. 2014). The mean CAL value of these measurements per tooth will be calculated. • Bleeding Probing Index - assessed at each site of PPD and CAL measurement. Depending on the absence or presence of bleeding within 10 second following probing of the tooth, BPI scored either as 0 or 1 respectively. The mean BIP value was calculated per tooth.
At visit V5 (90t 3 days), the Investigator assessed PPD, CAL and BoP in only 3 selected teeth for the study and recorded it in PERIODONTAL PARAMETERS FORM.

[2] = human healthy volunteers, cited from earlier work; for MIV-701/MIV06404 ratio: single oral administration
CTX-1 = test: Plasma CTX-1 in client-owned dogs with alveolar bone loss induced by spontaneously developed periodontal disease; type: in vivo
Protocol: as §1, §2
Administration protocol and dosage: MIV-701 besylate salt was administrated to dog once-a-day, at home with a standard meal. It was allowed to administrate the capsule(s) with a small amount of wet food/favorite snack. Opening of the capsule and spilling the product over the food was forbidden.
Treatment was administrated for 90 days. Every 30 days, based on the results of clinical exam, blood parameters and potential occurrence of adverse events suspected to be drug-related, the treatment prolongation for another 30 days, or discontinuation of treatment was decided by the Investigator.
Whole blood sample for CTX-1 analysis was collected at visit V2 (Day 0), visit V3 (Day 30+3 days), Visit V4 (Day 60t 3 days) and Visit V5 (Day 90t 3 days).
Each time, the blood sample was collected after overnight fasting, between 08:00 and 10:00 in the morning. As far as possible the blood sample was taken at the same time each visit. The night before the visit, the Investigational Product was administrated to the dog at 21:00.
The result from visit V2 (Day 0) was used as a baseline value for the efficacy evaluation criteria.
Each time 2 ml of the peripheral whole blood was collected on an anti-coagulant tube (K2EDTA) and gently inverted several times. Next, sample was centrifuged at 1500 G for 10 minutes at room temperature. The obtained plasma was divided into two Eppendorf tubes labelled as "Aliquot 1" and "Aliquot 2". Minimum 0.5 ml was placed in "Aliquot 1" while the rest of plasma was placed in "Aliquot 2". All obtained aliquots were immediately stored at - 20°C on site.
The CTX-1 analysis was performed at the end of the study by Central Laboratory. The shipment of aliquots from site to Central Laboratory was organized by the Monitor and divided into two, separated in time shipments. One with all "Aliquot 1" samples and second one with all "Aliquot 2" samples. The CTX-1 SAMPLE SHIPMENT FORM was joined to the shipment.

[3] = system: dogs with alveolar bone loss induced by spontaneously developed periodontal disease; test: Alveolar bone loss parameters by CBCT-scan and X-ray radiography in dogs with periodontal disease; type: in vivo; conditions: CTX-1 responders, Day-90 vs Day-0
Protocol: as §1, §2
Dental imaging was performed at visit V2 (Day 0) and visit V5 (90t 3 days).
Each time a full mouth CBCT-scan was performed together with dental radiographs of selected teeth for the study. The results of these exams were recorded in IMAGING FORM by the Investigator.
Full mouth cone-beam computed tomography (NewTom, 5G XL, Bologna, Italy) was performed at visit V2 (Day 0) and visit V5 (Day 90t 3 days).
The exam was performed only in dogs recruited in Polish site. It was performed under general anesthesia of Investigator's choice and aim at alveolar bone loss measurement.
Scans were analyzed with the use of NNT viewer, software provided by the manufacturer (version: 10.1; QR SRL, Verona, Italy). At both times, the volumetric assessment of dentition was set up for the same high-resolution mode (10 × 10 cm with 0.15 mm layers). Both readings were made in the same orientations of axes and locations measuring alveolar bone loss with the use of maximum magnification (Gawro, Strøm et Nemec 2022). To evaluate the effect of the treatment on the alveolar bone loss, the following three measurements (De Faria Vasconcelos et al. 2012) were performed on the selected teeth for the study: • 1. The height of the alveolar crest (AC), measured from the cementoenamel junction (CEJ) to the upper rim of AC (Figure 12A). • 2. The depth of the defect, measured from the CEJ to the bottom of the defect (Figure 12B). • 3. The width of the defect, measured from the highest point of the AC to the dental root adjacent to the defect (Figure 12C).
Dental radiography was performed at visit V2 (Day 0) and visit V5 (Day 90t 3 days).
To evaluate the effect of the treatment on the alveolar bone loss, the following three measurements (De Faria Vasconcelos et al. 2012) were performed on the selected teeth for the study: • 1. The heigh of the alveolar crest (AC), measured from the cementoenamel junction (CEJ) to the upper rim of AC (Figure 13A). • 2. The depth of the defect, measured from the CEJ to the bottom of the defect (Figure 13B). • 3. The width of the defect, measured from the highest point of the AC to the dental root adjacent to the defect (Figure 13C).
These measurements were performed using digital ruler of the imaging software or external program (i.e., Image J) and recorded in the IMAGING FORM.

For `CC(C)C[C@H](NC(=O)c1ccc(-c2csc(N3CCN(C)CC3)n2)cc1)C(=O)N1C[C@H](F)[C@H]2OCC(O)(O)[C@H]21` [MIV-701 besylate salt, N-[(S)-1-((3aS,6S,6aS)-6-Fluoro-S-oxo-hexahydro-furo[3,2-b]pyrrole-4-carbony)-3-methyl-butyl]-4-[2-(4-methyl-piperazin-1-yl)-thiazol-4-yl]-benzamide benzenesulphonate], the “Clinical Attachment Loss (CAL)” value [1] was “significantly improved”, the “Gingival Bleeding Index (GBI)” value [1] was “not modified” and the “Periodontal Probing Depth (PPD)” value [1] was “significantly improved”. The MIV-701/MIV-06404 exposure ratio ([2]; single administrations, dose not stated) was 0.03, the MIV-701/MIV06404 ratio ([2]; 25 mg) was 0.01 and the MIV-701/MIV06404 ratio ([2]; 75 mg) was 0.02. For the same compound, the MIV-701/MIV06404 ratio ([2]; 150 mg) was 0.03, the MIV-701/MIV06404 ratio ([2]; 300 mg) was 0.04 and the “patients with reduction in plasma CTX-1” value (CTX-1; 10 dogs, Day-90) was “all but one patient experienced reduction”. The “mean % change in CTX-1” value (CTX-1; CTX-1-responders (n=9), Day-90 vs Day-0) was -67%±6%, the “reduction of plasma CTX-1 vs baseline (Day-0)” value (CTX-1; dogs with periodontal disease, 25 and 50 mg/kg/day oral, Day-30 and Day-60, no significant difference between groups) was “comparable reduction” and the “reduction of plasma CTX-1 vs pre-treatment baseline” value (CTX-1; dogs with periodontal disease, Day-90 at 50 mg/kg/day, N=10) was “highly significant reduction”. The “depth of the alveolar bone defect” value ([3]; CBCT-images) was “Only favorable trends”, the “width of the alveolar bone defect” value ([3]; CBCT-scan and X-ray radiography) was “significantly reduced” and the “height of the alveolar crest” value ([3]; CBCT-scan images) was “Significant improvements”. The “depth of the alveolar bone loss” value ([3]; X-ray images) was “significant improvements” and the “height of the alveolar crest” value ([3]; X-ray radiography) was “only favorable trends”.
